# Several values for one entry are separate records, joined by “and”; a condition that tells them apart may be missing. Equal values may be shown once.
# Test system: MDA-MB-231 complex spheroid viability
# Assay: Anticancer human tumor MDA-MB-231/ATCC cell line growth inhibition;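 further: drug exposure lasted 7 days starting on day 3 of spheroid growth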
# Details: for viability, T/C: stronger effect = lower value
# Procedure, shortened: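 Drug combinations with the LSD1 inhibitor iadademstat tested on tumor cells co-cultured as spheroids with endothelial cells and mesenchymal stem cells. Concentrations descended in half-log increments from clinical Cmax or 10 microM.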
# [1] = curve of first compound, second compound 0.1 µM
# [2] = curve of first compound, second compound 0.316 µM
# [3] = curve of first compound, second compound 1 µM
# [4] = curve of first compound, second compound 3.16 µM
# [5] = curve of first compound, second compound 10 µM
# [6] = second compound 0.1 µM, first compound 0.00316 µM
# [7] = second compound 0.1 µM, first compound 0.01 µM
# [8] = second compound 0.1 µM, first compound 0.0316 µM
# [9] = second compound 0.1 µM, first compound 0.1 µM
# [10] = second compound 0.316 µM, first compound 0.00316 µM
# [11] = second compound 0.316 µM, first compound 0.01 µM
# [12] = second compound 0.316 µM, first compound 0.0316 µM
# [13] = second compound 0.316 µM, first compound 0.1 µM
# [14] = second compound 1 µM, first compound 0.00316 µM
# [15] = second compound 1 µM, first compound 0.01 µM
# [16] = second compound 1 µM, first compound 0.0316 µM
# [17] = second compound 1 µM, first compound 0.1 µM
# [18] = second compound 3.16 µM, first compound 0.00316 µM
# [19] = second compound 3.16 µM, first compound 0.01 µM
# [20] = second compound 3.16 µM, first compound 0.0316 µM
# [21] = second compound 3.16 µM, first compound 0.1 µM
# [22] = second compound 10 µM, first compound 0.00316 µM
# [23] = second compound 10 µM, first compound 0.01 µM
# [24] = second compound 10 µM, first compound 0.0316 µM
# [25] = second compound 10 µM, first compound 0.1 µM
SMILES,IC50 [1] [nM],IC50 [2] [nM],IC50 [3] [nM],IC50 [4] [nM],IC50 [5] [nM],"viability, T/C [6] [%]","viability, T/C [7] [%]","viability, T/C [8] [%]","viability, T/C [9] [%]","viability, T/C [10] [%]","viability, T/C [11] [%]","viability, T/C [12] [%]","viability, T/C [13] [%]","viability, T/C [14] [%]","viability, T/C [15] [%]","viability, T/C [16] [%]","viability, T/C [17] [%]","viability, T/C [18] [%]","viability, T/C [19] [%]","viability, T/C [20] [%]",also measured
CC(C)CC(NC(=O)CNC(=O)c1cc(Cl)ccc1Cl)B1OC(=O)CC(CC(=O)O)(C(=O)O)O1 (configuration not stated) + NC1CCC(NC2CC2c2ccccc2)CC1,7.26,7.08,7.23,5.75,3.98,85,36.5,5.81,0.78,81.8,36.4,5.22,0.88,85.8,36,4.74,0.52,69.4,31.7,3.87,"viability, T/C (second compound 0.1 µM, first compound 0.000316 µM): 105%; viability, T/C (second compound 0.1 µM, first compound 0.001 µM): 110%; viability, T/C (second compound 0.316 µM, first compound 0.000316 µM): 98.9%; viability, T/C (second compound 0.316 µM, first compound 0.001 µM): 107%; viability, T/C (second compound 1 µM, first compound 0.000316 µM): 102%; viability, T/C (second compound 1 µM, first compound 0.001 µM): 107%; viability, T/C (second compound 3.16 µM, first compound 0.000316 µM): 83.8%; viability, T/C (second compound 3.16 µM, first compound 0.001 µM): 86.7%; viability, T/C [21]: 0.63%; viability, T/C (second compound 10 µM, first compound 0.000316 µM): 57.6%; viability, T/C (second compound 10 µM, first compound 0.001 µM): 61.2%; viability, T/C [22]: 55.8%; viability, T/C [23]: 25.7%; viability, T/C [24]: 2.19%; viability, T/C [25]: 0.65%"
O=C(C=Cn1cnc(-c2cc(C(F)(F)F)cc(C(F)(F)F)c2)n1)NNc1cnccn1 + NC1CCC(NC2CC2c2ccccc2)CC1,5.44,4.93,6.56,6.04,< 3.16,61.7,37,14.9,10.4,58.9,36.2,15,11.4,64.6,41.7,15.4,11.4,56,45.4,13.9,"viability, T/C (second compound 0.1 µM, first compound 0.316 µM): 9%; viability, T/C (second compound 0.1 µM, first compound 1 µM): 6.32%; viability, T/C (second compound 0.316 µM, first compound 0.316 µM): 7.56%; viability, T/C (second compound 0.316 µM, first compound 1 µM): 5.07%; viability, T/C (second compound 1 µM, first compound 0.316 µM): 8.75%; viability, T/C (second compound 1 µM, first compound 1 µM): 6.54%; viability, T/C [21]: 11.2%; viability, T/C (second compound 3.16 µM, first compound 0.316 µM): 8.03%; viability, T/C (second compound 3.16 µM, first compound 1 µM): 6.06%; viability, T/C [22]: 49.2%; viability, T/C [23]: 34.5%; viability, T/C [24]: 14%; viability, T/C [25]: 9.12%; viability, T/C (second compound 10 µM, first compound 0.316 µM): 7.43%; viability, T/C (second compound 10 µM, first compound 1 µM): 5.83%"
CC(C)CC(NC(=O)CNC(=O)c1cc(Cl)ccc1Cl)B1OC(=O)CC(CC(=O)O)(C(=O)O)O1 (configuration not stated),–,–,–,–,–,–,–,–,–,–,–,–,–,–,–,–,–,–,–,–,"viability, T/C (compound 0.000316 µM): 99% and 100%; viability, T/C (compound 0.001 µM): 104% and 105%; viability, T/C (compound 0.00316 µM): 85.2% and 70.2%; viability, T/C (compound 0.01 µM): 39.5% and 14.9%; viability, T/C (compound 0.0316 µM): 6.41% and 1.24%; viability, T/C (compound 0.1 µM): 0.95% and 0.27%; IC50 (curve of compound): 7.67 nM and 4.84 nM"

# From PubChem BioAssay AID1918953 (Molecular Pharmacology Branch, DTP, NCI, 2023)
